From US12215123B2, “Cordycepin-based derivatized compound with anti-tumor effect” (NANJING TECH UNIVERSITY, priority 2022, dated 2025) come the findings set out here.

For data set [1], the system named is small cell lung cancer cell line H446. In words: MTT proliferation, small cell lung cancer cell line H446. It counts as cell-based. Conditions: for IC50: read-out: IC50 (μM) of compounds in small cell lung cancer cells, H446. Here is the method: (§1) The method for determining inhibitory activities of the compounds on the proliferation of tumor cells by an MTT method is as follows: a bottle of cells in a good state in an exponential growth phase is added with 0.25% trypsin digestive juice, the digestion makes adherent cells fall off, with 2 to 4×10^4 cells/mL, and a cell suspension is prepared. The cell suspension is inoculated on a 96-well plate, with 90 μL/well, and cultured in a constant-temperature CO2 incubator for 24 hours. The prepared compounds are added for testing, with 10 μL/well, and cultured for 72 hours. An MTT reagent is added into a 96-well plate, with 10 μL/well, and reacts in an incubator for 4 hours to absorb a supernatant, and then dimethyl sulfoxide is added, with 100 μL/well. After a crystal is dissolved, an absorbance of each well at a wavelength of 570 nm is measured by an enzyme-linked immunosorbent assay instrument, and a cell inhibition rate is calculated. An S curve is made with a compound concentration and a corresponding inhibition rate. Therefore, IC50 of a corresponding compound is obtained.
(§2) Anti-tumor dose-effect relationship curves of cordycepin and compounds 1, 2, 4, 5, 7, 8, 10, 12, 16, 18, 21, 23, 24, 35 and 38 in small cell lung cancer cell lines H1048, H446 and H69 were analyzed by an MTT experimental method.

For data set [2], the system named is wild-type AB-line zebrafish. Conditions: 3 dpf to 5 dpf, 35° C.; survival rate>90% and teratogenicity<20%. Here is the method: The zebrafish model is a wild-type AB-line zebrafish from College of Biotechnology and Pharmaceutical Engineering, Nanjing Tech University, and is carried out by a natural mating reproduction method, with 30 zebrafish of 2 dpf in each experimental group. The zebrafish is fed in fish culture water at 28° C. (water quality:200 mg of instant sea salt and CaCO3 are added into 1 L of reverse osmosis water with a conductivity of 480 uS/cm to 510 uS/cm, a pH value of 6.9 to 7.2, and a hardness of 53.7 mg/L to 71.6 mg/L), and the feeding management meets the requirements of international AAALAC certification.
240 3 dpf wild-type AB-line zebrafish were randomly selected in an 8-well plate, with 30 zebrafish in each well, and 3 mL of fish culture water in each well, the cordycepin was diluted according to a maximum lethal dose, dissolved in DMSO, and added into each well according to a concentration gradient (the maximum lethal dose was diluted by 100 times, in which 8 concentration gradient values were taken for the experiment), and meanwhile, a normal control group, a solvent control group G (5% glucose) and a solvent control group D (DMSO) were set. During the experiment, the zebrafish in each group were cultured at 35° C., after the zebrafish were treated to be 5 dpf with a sample to be tested, lethal and developmental malformation conditions of the zebrafish in different doses were investigated respectively, and a maximum tolerance dose (MTD) of the sample to be tested to normal zebrafish was determined under a concentration when survival rate>90% and teratogenicity<20%.

The subject of data set [3] is small cell lung cancer cell line H1048. Put plainly: MTT proliferation, small cell lung cancer cell line H1048. It counts as cell-based. The settings on record: read-out: IC50 (μM) of compounds in small cell lung cancer cells, H1048. As for the experimental part:
as §1, §2

For data set [4], the system named is gastric cancer cell line BGC-823. Put plainly: MTT proliferation, gastric cancer cell line BGC-823. It counts as cell-based. Conditions: read-out: IC50 (μM) in gastric cancer cells, BGC-823. Here is the method: as §1
(§3) Anti-tumor dose-effect relationship curves of the cordycepin and 40 compounds prepared in gastric cancer cell lines AGS and BGC-823 were analyzed by an MTT experimental method.

In data set [5] the test system is gastric cancer cell line AGS. Put plainly: MTT proliferation, gastric cancer cell line AGS. The class given is cell-based. The settings on record: read-out: IC50 (μM) in gastric cancer cells, AGS. Here is the method:
as §1, §3

Data set [6] relates to small cell lung cancer cell line H69. In words: MTT proliferation, small cell lung cancer cell line H69. It counts as cell-based. The settings on record: read-out: IC50 (μM) of compounds in small cell lung cancer cells, H69. As for the experimental part: as §1, §2
The mark [7] stands for this setting: Homo sapiens, NCI-H446, 72 h, MTT, 72 hours, H446.
The mark [8] stands for this setting: Homo sapiens, NCI-H1048, 72 h, MTT, 72 hours, H1048.
[9] abbreviates: Homo sapiens, MTT, 72 hours, BGC-823.

Where two headings read alike, the source gives them in different places.

For orientation: IC50 means the midpoint of a concentration-inhibition curve. For `Nc1ncnc2c1ncn2[C@@H]1O[C@H](COP(=O)(O)O)CC1O` (stereo partly shown) [Compound 2, (5-(6-amino-9H-purine-9-yl)-4-hydroxytetrahydrofuran-2-yl)dihydromethyl phosphate], the IC50 in data set [1] (setting [7]) was 76.8 µM; in data set [3] (setting [8]), 55.3 µM; in data set [4] (setting [9]) it was 209 µM; in data set [5] (MTT, 72 hours, AGS), 142 µM; in data set [6] (MTT, 72 hours, H69) it was 50.2 µM. The “Maximum tolerance dose (MTD) in zebrafish model” value (shortened to “Maximum tolerance dose (MTD)”) in data set [2] stood at 845 µM.

Consider `CC(C)Nc1nc2c(N)ncnc2n1[C@@H]1O[C@H](COP(=O)(O)O)CC1O` (stereo partly shown) [Compound 39, (5-(6-amino-8-(isopropylamino)-9H-purin-9-yl)-4-hydroxytetrahydrofuran-2-yl)dihydromethyl phosphate], for which the “Maximum tolerance dose (MTD)” value in data set [2] was 28 µM. For the same molecule, the IC50 is 167 µM in data set [4] (setting [9]) and 187 µM in data set [5] (MTT, 72 hours, AGS).

For the molecule `Nc1nc(F)nc2c1ncn2[C@@H]1O[C@H](COP(=O)(O)O)CC1O` (stereo partly shown) [Compound 13, (5-(6-amino-2-fluoro-9H-purine-9-yl)-4-hydroxytetrahydrofuran-2-yl)dihydromethyl phosphate], the “Maximum tolerance dose (MTD)” value in data set [2] was determined as 0.05 µM. Besides, the 50% inhibitory concentration (IC50) stood at 36.8 µM in data set [4] (setting [9]) and 32.5 µM in data set [5] (MTT, 72 hours, AGS).

Consider `CC(C)OC(=O)C(C)NP(=O)(COC[C@@H]1CC(O)[C@H](n2cnc3c(N)nc(F)nc32)O1)Oc1ccccc1` (stereo partly shown) [Compound 20, isopropyl((((5-(6-amino-2-fluoro-9H-purin-9-yl)-4-hydroxytetrahydrofuran-2-yl)methoxy)methyl)(phenoxy)phosphoryl)alanine ester], for which, in data set [2], the “Maximum tolerance dose (MTD)” value was 0.12 µM. The IC50 in data set [4] (Homo sapiens, BGC-823, 72 h) stood at 1.37 µM; in data set [5] (72 h) it was 0.94 µM.

Regarding `CC(C)OC(=O)C(C)NP(=O)(COC[C@@H]1CC(O)[C@H](n2cnc3c(N)ncnc32)O1)Oc1ccccc1` (stereo partly shown) [Compound 7], the IC50 in data set [1] (Homo sapiens, NCI-H446, 72 h) was found to be 20.5 µM; in data set [3] (Homo sapiens, NCI-H1048, 72 h), 12.1 µM; in data set [4] (Homo sapiens, BGC-823, 72 h), 1.61 µM; in data set [5] (72 h), 2.46 µM; in data set [6] (72 h) it was 9.59 µM. Besides, in data set [2], the “Maximum tolerance dose (MTD)” value came to 62 µM.

Turning to `Nc1nc(F)nc2c1ncn2C1OC(COC2CC(CO)C(O)C2O)CC1O` (stereo not shown) [Compound 36, 3-((5-(6-amino-2-fluoro-9H-purin-9-yl)-4-hydroxytetrahydrofuran-2-yl)methoxy)-5-(hydroxymethyl)cyclopentane-1,2-diol], the “Maximum tolerance dose (MTD)” value in data set [2] was determined as 0.02 µM. In addition, the IC50 in data set [4] (setting [9]) turned out to be 90.2 µM; in data set [5] (MTT, 72 hours, AGS), 103 µM.

Take `CC(C)(C)C(=O)OCOP(=O)(COC[C@]1(N=[N+]=[N-])CC(O)[C@H](n2cnc3c(N)ncnc32)O1)OCOC(=O)C(C)(C)C` (stereo partly shown) [Compound 37]: the “Maximum tolerance dose (MTD)” value in data set [2] was 0.17 µM. Further, the IC50 turned out to be 56.1 µM in data set [4] (setting [9]) and 64.2 µM in data set [5] (MTT, 72 hours, AGS).

With `O=C(Nc1ncnc2c1ncn2[C@@H]1O[C@H](CO)CC1O)C1CCCC1` (stereo partly shown) [Compound 11], the “Maximum tolerance dose (MTD)” value in data set [2] was 75 µM. In addition, the 50% inhibitory concentration (IC50) in data set [4] (setting [9]) stood at 10.3 µM; in data set [5] (MTT, 72 hours, AGS), 13 µM.

Take `COC(=O)C(NP(=O)(OC[C@@H]1CC(O)[C@H](n2cnc3c(N)ncnc32)O1)Oc1ccccc1)C(C)C` (stereo partly shown) [Compound 6]: the “Maximum tolerance dose (MTD)” value in data set [2] was found to be 384 µM. The concentration for half-maximal inhibition (IC50) in data set [4] (setting [9]) was 73.2 µM; in data set [5] (MTT, 72 hours, AGS), 66.8 µM.

“(5-(2-((E)-2-bromocarbonyl)-6-(isonicotinamide)-9H-purin-9-yl)-4-hydroxytetrahydrofuran-2-yl)dihydromethyl phosphate [Compound 35]”: the IC50 in data set [1] (MTT, 72 hours, H446) was 21.4 µM; in data set [3] (MTT, 72 hours, H1048), 32.6 µM; in data set [4] (MTT, 72 hours, BGC-823) it was 71 µM; in data set [5] (MTT, 72 hours, AGS), 69.4 µM; in data set [6] (MTT, 72 hours, H69) it was 21.5 µM. In addition, the “killing effect on the three lines of cells in vitro” value in data set [1] (stated in words for all three lines H1048, H446 and H69, MTT) is recorded as “strong killing effect”. Also, the “Maximum tolerance dose (MTD)” value in data set [2] came out at 0.025 µM.

As to `[N-]=[N+]=N[C@@H]1C(O)[C@H](n2cnc3c(N)ncnc32)O[C@@H]1COP(=O)(O)O` (stereo partly shown) [Compound 25, (5-(6-amino-9H-purine-9-yl)-3-azide-4-hydroxytetrahydrofuran-2-yl)dihydromethyl phosphate], the “Maximum tolerance dose (MTD)” value in data set [2] was found to be 12 µM. Moreover, the half-maximal inhibitory concentration (IC50) in data set [4] (setting [9]) was 58.5 µM; in data set [5] (MTT, 72 hours, AGS) it was 47.6 µM.

With `NC1=CS(=O)(=O)OC12C[C@@H](COP(=O)(O)O)O[C@H]2n1cnc2c(N)ncnc21` (stereo partly shown) [Compound 9, (4-amino-6-(6-amino-9H-purin-9-yl)-2,2-dioxide-1,7-dioxane-2-thiaspiro[4.4]non-3-ene-8-yl)dihydromethyl phosphate], in data set [2], the “Maximum tolerance dose (MTD)” value was 14 µM. The IC50 is 1.24 µM in data set [4] (setting [9]) and 0.46 µM in data set [5] (MTT, 72 hours, AGS).

Take `CC(C)C(=O)OCOP(=O)(COC[C@@H]1CC(O)[C@H](n2cnc3c(N)ncnc32)O1)OCOC(=O)C(C)C` (stereo partly shown) [Compound 5]: the half-maximal inhibitory concentration (IC50) in data set [1] (setting [7]) was 43.3 µM; in data set [3] (setting [8]), 40.9 µM; in data set [4] (setting [9]) it was 91.5 µM; in data set [5] (MTT, 72 hours, AGS) it was 72.7 µM; in data set [6] (MTT, 72 hours, H69), 53.4 µM. Also, in data set [2], the “Maximum tolerance dose (MTD)” value worked out at 525 µM.
